Molecular target: T1, human PTH1 receptor (Homo sapiens, UniProt Q03431)
T1 sequence (Q03431 27-593): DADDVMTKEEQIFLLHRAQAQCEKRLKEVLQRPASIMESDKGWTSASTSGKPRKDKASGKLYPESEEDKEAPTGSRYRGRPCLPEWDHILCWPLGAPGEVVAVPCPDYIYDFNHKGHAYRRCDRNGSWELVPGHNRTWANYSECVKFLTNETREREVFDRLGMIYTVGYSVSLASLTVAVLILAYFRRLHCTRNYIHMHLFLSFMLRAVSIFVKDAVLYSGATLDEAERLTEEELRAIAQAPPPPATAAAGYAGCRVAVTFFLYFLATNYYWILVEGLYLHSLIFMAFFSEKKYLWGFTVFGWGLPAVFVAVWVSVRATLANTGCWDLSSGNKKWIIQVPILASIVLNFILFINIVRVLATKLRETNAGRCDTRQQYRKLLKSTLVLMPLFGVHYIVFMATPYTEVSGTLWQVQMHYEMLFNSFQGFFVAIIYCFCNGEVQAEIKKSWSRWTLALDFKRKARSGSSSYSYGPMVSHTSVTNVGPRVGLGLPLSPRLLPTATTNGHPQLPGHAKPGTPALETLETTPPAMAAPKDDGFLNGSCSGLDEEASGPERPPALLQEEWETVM
Assay: In vitro cAMP signal activity in HKRK-B7 cells (LLC-PK1 cells overexpressing the human PTH1 receptor)
Assay type: cell-based
Settings: HKRK-B7 cells; compound at 1×10^−3 M; cAMP produced as percentage of that produced by hPTH(1-34) at 100 nM

Row | Structure (SMILES) | cAMP production activity (%)
1 | Cc1cc(C(=O)N(C)C)ccc1CCS(=O)(=O)N1CCC2(CC1)N=C(c1cccc(S(C)(=O)=O)c1)NC2=O [Compound 110, 4-{2-[2-(3-methanesulfonyl-phenyl)-4-oxo-1,3,8-triaza-spiro[4.5]dec-1-ene-8-sulfonyl]-ethyl}-3,N,N-trimethyl-benzamide] | 25
2 | Cc1cc(C(=O)N(C)C)ccc1CCS(=O)(=O)N1CCC2(CC1)N=C(c1cccc(C)c1C)NC2=O [Compound 113, 4-{2-[2-(2,3-dimethyl-phenyl)-4-oxo-1,3,8-triaza-spiro[4.5]dec-1-ene-8-sulfonyl]-ethyl}-3,N,N-trimethyl-benzamide] | 111
3 | Cc1cc(C(=O)N(C)C)ccc1CCS(=O)(=O)N1CCC2(CC1)N=C(c1cccc(F)c1C)NC2=O [Compound 114, 4-{2-[2-(3-fluoro-2-methyl-phenyl)-4-oxo-1,3,8-triaza-spiro[4.5]dec-1-ene-8-sulfonyl]-ethyl}-3,N,N-trimethyl-benzamide] | 105
4 | Cc1cc(C(=O)N(C)C)ccc1CCS(=O)(=O)N1CCC2(CC1)N=C(c1cc(F)cc(C(F)(F)F)c1)NC2=O [Compound 115, 4-{2-[2-(3-fluoro-5-trifluoromethyl-phenyl)-4-oxo-1,3,8-triaza-spiro[4.5]dec-1-ene-8-sulfonyl]-ethyl}-3,N,N-trimethyl-benzamide] | 81
5 | Cc1cc(C(=O)N(C)C)ccc1CCS(=O)(=O)N1CCC2(CC1)N=C(c1ccc(OC(F)F)cc1)NC2=O [Compound 118, 4-{2-[2-(4-difluoromethoxy-phenyl)-4-oxo-1,3,8-triaza-spiro[4.5]dec-1-ene-8-sulfonyl]-ethyl}-3,N,N-trimethyl-benzamide] | 73
6 | Cc1cnc(C2=NC3(CCN(S(=O)(=O)CCc4ccc(C(=O)N(C)C)cc4C)CC3)C(=O)N2)cn1 [Compound 120, 3,N,N-trimethyl-4-{2-[2-(5-methyl-pyrazin-2-yl)-4-oxo-1,3,8-triaza-spiro[4.5]dec-1-ene-8-sulfonyl]-ethyl}-benzamide] | 3.1
7 | Cc1cc(C(=O)N(C)C)ccc1CCS(=O)(=O)N1CCC2(CC1)N=C(c1nccn1C)NC2=O [Compound 122, 3,N,N-trimethyl-4-{2-[2-(1-methyl-1H-imidazol-2-yl)-4-oxo-1,3,8-triaza-spiro[4.5]dec-1-ene-8-sulfonyl]-ethyl}-benzamide] | 3.0
8 | Cc1cc(C(=O)N(C)C)ccc1CCS(=O)(=O)N1CCC2(CC1)N=C(COc1ccc(Cl)cc1)NC2=O [Compound 124, 4-{2-[2-(4-chloro-phenoxymethyl)-4-oxo-1,3,8-triaza-spiro[4.5]dec-1-ene-8-sulfonyl]-ethyl}-3,N,N-trimethyl-benzamide] | 64
9 | Cc1cc(C(=O)N(C)C)ccc1CCS(=O)(=O)N1CCC2(CC1)N=C(c1ccc(Cl)c(C(F)(F)F)c1)NC2=O [Compound 126, 4-{2-[2-(4-chloro-3-trifluoromethyl-phenyl)-4-oxo-1,3,8-triaza-spiro[4.5]dec-1-ene-8-sulfonyl]-ethyl}-3,N,N-trimethyl-benzamide] | 79
10 | Cc1cc(C(=O)N(C)C)ccc1CCS(=O)(=O)N1CCC2(CC1)N=C(c1cc(Cl)cc(C(F)(F)F)c1)NC2=O [Compound 127, 4-{2-[2-(3-chloro-5-trifluoromethyl-phenyl)-4-oxo-1,3,8-triaza-spiro[4.5]dec-1-ene-8-sulfonyl]-ethyl}-3,N,N-trimethyl-benzamide] | 72
11 | Cc1cc(C(=O)N(C)C)ccc1CCS(=O)(=O)N1CCC2(CC1)N=C(c1ccc(Cl)cc1C)NC2=O [Compound 128, 4-{2-[2-(4-chloro-2-methyl-phenyl)-4-oxo-1,3,8-triaza-spiro[4.5]dec-1-ene-8-sulfonyl]-ethyl}-3,N,N-trimethyl-benzamide] | 57
12 | Cc1cc(C(=O)N(C)C)ccc1CCS(=O)(=O)N1CCC2(CC1)N=C(c1cccc(Cl)c1C)NC2=O [Compound 133, 4-{2-[2-(3-chloro-2-methyl-phenyl)-4-oxo-1,3,8-triaza-spiro[4.5]dec-1-ene-8-sulfonyl]-ethyl}-3,N,N-trimethyl-benzamide] | 82
13 | Cc1cc(C(=O)N(C)C)ccc1CCS(=O)(=O)N1CCC2(CC1)N=C(Cc1ccc(Cl)cc1Cl)NC2=O [Compound 134, 4-{2-[2-(2,4-dichloro-benzyl)-4-oxo-1,3,8-triaza-spiro[4.5]dec-1-ene-8-sulfonyl]-ethyl}-3,N,N-trimethyl-benzamide] | 77
14 | Cc1cc(C(=O)N(C)C)ccc1CCS(=O)(=O)N1CCC2(CC1)N=C(Cc1cccc(C(F)(F)F)c1)NC2=O [Compound 135, 3,N,N-trimethyl-4-{2-[4-oxo-2-(3-trifluoromethyl-benzyl)-1,3,8-triaza-spiro[4.5]dec-1-ene-8-sulfonyl]-ethyl}-benzamide] | 67

Now from value to compound:

Row | cAMP production activity (%) | Structure (SMILES)
15 | 93 | Cc1cc(C(=O)N(C)C)ccc1CCS(=O)(=O)N1CCC2(CC1)N=C(c1cccc(C(F)(F)F)c1C)NC2=O [Compound 111, 3,N,N-trimethyl-4-{2-[2-(2-methyl-3-trifluoromethyl-phenyl)-4-oxo-1,3,8-triaza-spiro[4.5]dec-1-ene-8-sulfonyl]-ethyl}-benzamide]
16 | 77 | Cc1cc(C(=O)N(C)C)ccc1CCS(=O)(=O)N1CCC2(CC1)N=C(c1cc(C(F)(F)F)ccc1C)NC2=O [Compound 112, 3,N,N-trimethyl-4-{2-[2-(2-methyl-5-trifluoromethyl-phenyl)-4-oxo-1,3,8-triaza-spiro[4.5]dec-1-ene-8-sulfonyl]-ethyl}-benzamide]
17 | 94 | Cc1cc(C(=O)N(C)C)ccc1CCS(=O)(=O)N1CCC2(CC1)N=C(c1cccc(C(F)(F)F)c1F)NC2=O [Compound 116, 4-{2-[2-(2-fluoro-3-trifluoromethyl-phenyl)-4-oxo-1,3,8-triaza-spiro[4.5]dec-1-ene-8-sulfonyl]-ethyl}-3,N,N-trimethyl-benzamide]
18 | 61 | Cc1cc(C2=NC3(CCN(S(=O)(=O)CCc4ccc(C(=O)N(C)C)cc4C)CC3)C(=O)N2)ccc1F [Compound 117, 4-{2-[2-(4-fluoro-3-methyl-phenyl)-4-oxo-1,3,8-triaza-spiro[4.5]dec-1-ene-8-sulfonyl]-ethyl}-3,N,N-trimethyl-benzamide]
19 | 60 | COc1cc(C2=NC3(CCN(S(=O)(=O)CCc4ccc(C(=O)N(C)C)cc4C)CC3)C(=O)N2)ccn1 [Compound 119, 4-{2-[2-(2-methoxy-pyridin-4-yl)-4-oxo-1,3,8-triaza-spiro[4.5]dec-1-ene-8-sulfonyl]-ethyl}-3,N,N-trimethyl-benzamide]
20 | 5.8 | Cc1cc(C(=O)N(C)C)ccc1CCS(=O)(=O)N1CCC2(CC1)N=C(c1cscn1)NC2=O [Compound 121, 3,N,N-trimethyl-4-[2-(4-oxo-2-thiazol-4-yl-1,3,8-triaza-spiro[4.5]dec-1-ene-8-sulfonyl)-ethyl]-benzamide]
21 | 23 | Cc1cc(C(=O)N(C)C)ccc1CCS(=O)(=O)N1CCC2(CC1)N=C(C1CCOCC1)NC2=O [Compound 123, 3,N,N-trimethyl-4-{2-[4-oxo-2-(tetrahydro-pyran-4-yl)-1,3,8-triaza-spiro[4.5]dec-1-ene-8-sulfonyl]-ethyl}-benzamide]
22 | 62 | Cc1cc(C(=O)N(C)C)ccc1CCS(=O)(=O)N1CCC2(CC1)N=C(COc1ccc(F)cc1)NC2=O [Compound 125, 4-{2-[2-(4-fluoro-phenoxymethyl)-4-oxo-1,3,8-triaza-spiro[4.5]dec-1-ene-8-sulfonyl]-ethyl}-3,N,N-trimethyl-benzamide]
23 | 3.7 | Cc1cc(C(=O)N(C)C)ccc1CCS(=O)(=O)N1CCC2(CC1)N=C(c1ccc(Cl)cc1F)NC2=O [Compound 129, 4-{2-[2-(4-chloro-2-fluoro-phenyl)-4-oxo-1,3,8-triaza-spiro[4.5]dec-1-ene-8-sulfonyl]-ethyl}-3,N,N-trimethyl-benzamide]
24 | 65 | Cc1cc(C(=O)N(C)C)ccc1CCS(=O)(=O)N1CCC2(CC1)N=C(c1cccc(COC(C)C)c1)NC2=O [Compound 130, 4-{2-[2-(3-isopropoxymethyl-phenyl)-4-oxo-1,3,8-triaza-spiro[4.5]dec-1-ene-8-sulfonyl]-ethyl}-3,N,N-trimethyl-benzamide]
25 | 72 | Cc1cc(C(=O)N(C)C)ccc1CCS(=O)(=O)N1CCC2(CC1)N=C(COc1ccc(Cl)cc1Cl)NC2=O [Compound 131, 4-{2-[2-(2,4-dichloro-phenoxymethyl)-4-oxo-1,3,8-triaza-spiro[4.5]dec-1-ene-8-sulfonyl]-ethyl}-3,N,N-trimethyl-benzamide]
26 | 72 | Cc1cc(C(=O)N(C)C)ccc1CCS(=O)(=O)N1CCC2(CC1)N=C(C1(C(F)(F)F)CC1)NC2=O [Compound 136, 3,N,N-trimethyl-4-{2-[4-oxo-2-(1-trifluoromethyl-cyclopropyl)-1,3,8-triaza-spiro[4.5]dec-1-ene-8-sulfonyl]-ethyl}-benzamide]
27 | 50 | Cc1cc(C(=O)N(C)C)ccc1CCS(=O)(=O)N1CCC2(CC1)N=C(C1(C(F)(F)F)CCC1)NC2=O [Compound 137, 3,N,N-trimethyl-4-{2-[4-oxo-2-(1-trifluoromethyl-cyclobutyl)-1,3,8-triaza-spiro[4.5]dec-1-ene-8-sulfonyl]-ethyl}-benzamide]
